In patent US20090209537A1, “AURORA INHIBITORS” (Kyowa Hakko Kirin Co., Ltd., priority 2006, published 2009) one finds inhibition data, which are given here for 3 molecules.

One assay concerns the target T1, Aurora A protein (Homo sapiens, UniProt O14965).
T1 construct: purchased Carna Biosciences
T1 sequence (O14965 1-403): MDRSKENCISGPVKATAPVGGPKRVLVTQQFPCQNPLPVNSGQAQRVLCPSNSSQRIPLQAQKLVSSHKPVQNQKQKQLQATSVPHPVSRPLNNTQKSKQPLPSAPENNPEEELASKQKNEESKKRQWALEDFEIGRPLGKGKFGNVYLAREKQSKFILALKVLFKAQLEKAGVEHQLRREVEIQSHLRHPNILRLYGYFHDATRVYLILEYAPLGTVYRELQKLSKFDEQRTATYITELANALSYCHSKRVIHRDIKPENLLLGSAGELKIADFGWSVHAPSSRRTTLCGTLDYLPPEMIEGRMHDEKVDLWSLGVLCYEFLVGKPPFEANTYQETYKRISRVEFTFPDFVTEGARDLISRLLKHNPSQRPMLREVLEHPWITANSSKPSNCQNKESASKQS
The assay is described as follows: Aurora A inhibitory activity (IMAP). The class given is biochemical. The settings on record: at a concentration of 1 μmol/L; 10 μmol/L ATP. On the procedure: The following procedure was employed to measure the Aurora A inhibitory activity.
A 20 μL sample containing Aurora A protein (Carna Biosciences) at a final concentration of 0.35 mg/mL, 20 mmol/L HEPES (pH 7.4), 0.01% Tween-20, 2 mmol/L DTT, 100 nmol/L PKAtide, 1 mmol/L magnesium acetate, 10 μmol/L adenosine-5′-triphosphate (ATP), 1% dimethylsulfoxide (DMSO), and 1 μmol/L test compound was prepared and enzyme reaction was conducted at room temperature for 60 minutes. Phosphorylation reaction was detected by using IMAP Screening Express kit (Molecular Devices Corp., R8073).
While assuming the observed value of a control to which ATP was added to be 100% and the observed value of a control to which no ATP was added to be 0%, the relative activity (%) of the radio activity of a sample containing a test compound was calculated, and the difference between 100 and the obtained percentage value was assumed to be the Aurora A inhibitory rate (%) of that test compound.

The target in another assay is T2, Aurora B protein (Homo sapiens, UniProt Q96GD4).
T2 construct: purchased Carna Biosciences
The assay is described as follows: Aurora B inhibitory activity (IMAP). The class given is biochemical. The settings on record: at a concentration of 1 μmol/L; 10 μmol/L ATP. On the procedure: The following procedure was employed to measure the Aurora B inhibitory activity.
A 20 μL sample containing Aurora B protein (Carna Biosciences) at a final concentration of 0.3 mg/mL, 20 mmol/L HEPES (pH 7.4), 0.01% Tween-20, 2 mmol/L DTT, 100 nmol/L Histone H3, 1 mmol/L magnesium acetate, 10 μmol/L ATP, 1% DMSO, and 1 μmol/L test compound was prepared and enzyme reaction was conducted at room temperature for 60 minutes. Phosphorylation reaction was detected by using IMAP Screening Express kit (Molecular Devices Corp., R8073).
While assuming the observed value of a control to which ATP was added to be 100% and the observed value of a control to which no ATP was added to be 0%, the relative activity (%) of the radio activity of a sample containing a test compound was calculated, and the difference between 100 and the obtained percentage value was assumed to be the Aurora B inhibitory rate (%) of that test compound.

For assay [1], the system named is human pancreatic cancer cell line (MIA-PaCa-2). The assay is described as follows: Cytostatic activity against human pancreatic cancer cell line (WST-1). The class given is cell-based. The settings on record: at a concentration of 10 μmol/L, 72 hours, read-out: growth inhibitory activity. As for the experimental part:
The cytostatic rate of Compound (I) against a human pancreatic cancer cell line (MIA-PaCa-2) was measured according to the following procedure.
MIA-PaCa-2 cells were cultured in a minimum essential medium (MEM) (GIBCO) containing a 10% fetal calf serum (FCS).
Each well of a TC Microwell 96F plate (Nalge Nunc) was inoculated with 50 μL of MIA-PaCa-2 cells at a density of 1000 cells/well, and the cells were incubated at 37° C. for 24 hours in a 5% carbon dioxide gas incubator. To each well, 50 μL of a solution containing a test compound prepared by stepwise dilution with the incubation medium of the respective cells was added and the resulting mixture was again incubated at 37° C. for 72 hours in a 5% carbon dioxide gas incubator. To each well, 10 μL of a WST-1 reagent (4-[3-(4-iodophenyl)-2-(4-nitrophenyl)-2H-5-tetrazolio]-1,3-benzene disulfonate sodium salt) (Roche Diagnostics K. K.) was added, followed by incubation at 37° C. for 2 hours and analysis with a microplate spectrometer, SpectraMax 340PC (Molecular Devices) to determine the absorbance at 450 nm (reference wavelength: 690 nm). The cytostatic rate was determined from the equation below by assuming the absorbance of the well containing cells similarly cultured by adding a solvent of the test compound solution to be 100%. Furthermore, the observed absorbance of a blank to which WST-1 was added immediately after addition of the solvent was used.
A general note: Tetrazolium assays rely on reduction of a dye to a coloured formazan, in cell work by metabolically active cells.

T2 sequence (Q96GD4 whole entry): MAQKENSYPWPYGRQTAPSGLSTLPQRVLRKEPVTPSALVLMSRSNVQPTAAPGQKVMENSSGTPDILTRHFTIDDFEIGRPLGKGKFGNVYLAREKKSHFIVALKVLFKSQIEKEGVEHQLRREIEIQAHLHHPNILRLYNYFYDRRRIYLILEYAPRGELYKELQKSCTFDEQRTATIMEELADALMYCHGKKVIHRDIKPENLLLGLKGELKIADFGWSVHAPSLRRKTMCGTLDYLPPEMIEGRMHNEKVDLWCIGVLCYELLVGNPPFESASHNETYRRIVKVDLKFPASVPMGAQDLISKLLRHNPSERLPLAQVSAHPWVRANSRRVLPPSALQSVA
T2 sequence (Q9NQS7 803-918 partner limits assumed): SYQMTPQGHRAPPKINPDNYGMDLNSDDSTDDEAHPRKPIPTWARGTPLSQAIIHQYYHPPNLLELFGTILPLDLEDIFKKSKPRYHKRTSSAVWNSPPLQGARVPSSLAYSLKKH

`Nc1cc(/C=C/c2n[nH]c3ccccc23)ccc1OCCN1CCOCC1` [Compound 4]: the inhibition at 1 µM on Aurora A protein and at Aurora B protein was ≥ 90% each time. Moreover, in assay [1], the inhibition at 10 µM was ≥ 50%.
For `CC(=O)N1CCN(C(=O)c2ccc(/C=C/c3n[nH]c4ccccc34)cc2)CC1` [Compound 6], the inhibition at 1 µM at Aurora A protein and against Aurora B protein was ≥ 90% throughout. Also, the inhibition at 10 µM in assay [1] is ≥ 50%.
In the case of `COCC(=O)N1CCN(C(=O)c2ccc(/C=C/c3n[nH]c4ccccc34)cc2)CC1` [Compound 7], the inhibition at 1 µM on Aurora A protein and at Aurora B protein was ≥ 90% throughout. Also, the inhibition at 10 µM in assay [1] is ≥ 50%.
